Earlier results as cited in patent US12157728B2, “Targeting of endoplasmic reticulum dysfunction and protein folding stress to treat neurological conditions” (ALS Therapy Development Institute, priority 2018, dated 2024).
Structures can show the parent of a compound that is named as a salt.

How the values were obtained:
[1] = in vivo
[2] = system: β-amyloid-induced neuronal death
[3] = system: ER stress-mediated apoptosis; settings: induced by tunicamycin
[4] = system: GADD34/protein phosphatase 1 (PP1)
[5] = not given; remark: listed apart in the source

| Structure (SMILES) | solubility in 0.9% saline and aqueous buffers (0.9% saline and aqueous buffers at or below pH 2.0) | solubility in aqueous buffers (aqueous buffers at or above pH 3.0) | solubility in water (water) | clearance [1] | cell death induced by α-synuclein (PC12 cells) | β-amyloid-induced neuronal death and microglial activation [2] | ER stress-mediated apoptosis [3] | motor neuron degeneration (SOD1 mice) | survival (SOD1 mice) | eIF2α dephosphorylation via GADD34/PP1 complex [4] | solubility in aqueous solutions [5] |
| --- | --- | --- | --- | --- | --- | --- | --- | --- | --- | --- | --- |
| CCCCCCCCc1ccc(CCC(N)(CO)CO)cc1 [Fingolimod hydrochloride] | soluble | very slightly soluble or practically insoluble | > 10% |  |  |  |  |  |  |  |  |
| O=C(/C=C/c1ccccc1)NC(NC(=S)Nc1cccc2cccnc12)C(Cl)(Cl)Cl (centres unmarked) [Salubrinal, N-(2,2,2-trichloro-1-(3-(quinolin-8-yl)thioureido)ethyl)cinnamamide] |  |  |  | rapid clearance | protected PC12 cells from cell death | attenuate β-amyloid-induced neuronal death and microglial activation | inhibit ER stress-mediated apoptosis | slowed motor neuron degeneration | extended survival | prevent eIF2α dephosphorylation | low solubility |
